Data reported in ChEMBL document CHEMBL5230082, “Recent advances in steroid amino acid conjugates: Old scaffolds with new dimensions” (Eur J Med Chem, 2020).
In brackets after ≈: the same amount, converted by molar mass.

Tests used:
Rattus norvegicus [1] = assay: Antiarrhythmic activity in pentobarbital anesthetized rat model assessed as number of ventricular ectopics at 10 mg/kg, iv; assay type: functional
Rattus norvegicus [2] = assay: Antiarrhythmic activity in pentobarbital anesthetized rat model assessed as ventricular fibrillation at 10 mg/kg, iv relative to control; assay type: functional
MCF7 = assay: Antiproliferative activity against human MCF7 by MTT assay; assay type: functional, cell-based
[3] = Inhibition of Sialyltransferase (unknown origin); design: species or system Homo sapiens
Integrin alpha-M/beta-2 = Integrin alpha-M/beta-2 (Homo sapiens, UniProt P05107+P11215); assay: Antagonist activity at integrin CD11B/CD18 (unknown origin); assay type: protein-complex assay
[4] = Anticancer activity against human U-87 MG cells assessed as growth inhibition; assay type: functional, U-87MG ATCC
MDA-MB-231 = assay: Anticancer activity against human MDA-MB-231 cells assessed as growth inhibition; assay type: functional
Escherichia coli = assay: Antibacterial activity against Escherichia coli; assay type: functional
[5] = biological target: T1, Hepatic sodium/bile acid cotransporter (Homo sapiens, UniProt Q14973); assay: Binding affinity to NTCP (unknown origin) assessed as inhibition constant
T1 sequence (Q14973 whole entry): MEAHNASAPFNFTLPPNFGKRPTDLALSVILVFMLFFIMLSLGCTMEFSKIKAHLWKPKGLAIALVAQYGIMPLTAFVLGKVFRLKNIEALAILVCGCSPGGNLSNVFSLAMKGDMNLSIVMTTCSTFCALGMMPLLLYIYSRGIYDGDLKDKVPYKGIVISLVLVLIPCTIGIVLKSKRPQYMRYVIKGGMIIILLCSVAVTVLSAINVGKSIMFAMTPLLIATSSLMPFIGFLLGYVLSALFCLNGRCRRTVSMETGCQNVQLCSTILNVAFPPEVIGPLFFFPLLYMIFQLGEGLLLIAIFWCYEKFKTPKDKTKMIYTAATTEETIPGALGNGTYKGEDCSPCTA

[6] = biological target: T2, Ileal sodium/bile acid cotransporter (Homo sapiens, UniProt Q12908); assay: Binding affinity to ASBT (unknown origin) assessed as inhibition constant
T2 sequence (Q12908 whole entry): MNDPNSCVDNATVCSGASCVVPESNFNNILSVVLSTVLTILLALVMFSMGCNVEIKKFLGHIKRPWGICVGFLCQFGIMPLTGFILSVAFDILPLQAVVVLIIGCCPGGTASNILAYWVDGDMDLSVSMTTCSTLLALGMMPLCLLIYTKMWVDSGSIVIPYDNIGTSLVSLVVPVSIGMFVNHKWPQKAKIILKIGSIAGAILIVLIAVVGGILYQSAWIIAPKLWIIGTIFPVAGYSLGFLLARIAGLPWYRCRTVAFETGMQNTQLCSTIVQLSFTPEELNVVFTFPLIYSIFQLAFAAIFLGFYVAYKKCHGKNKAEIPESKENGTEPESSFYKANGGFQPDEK

Cladosporium cucumerinum [7] = assay: Antifungal activity against Cladosporium cucumerinum assessed as zone of inhibition at 30 ug per disc; assay type: functional; conditions: read-out: DIZ
Staphylococcus aureus [8] = assay: Antibacterial activity against Staphylococcus aureus assessed as bacterial growth inhibition per disk; assay type: functional
Candida albicans = assay: Antifungal activity against Candida albicans assessed as fungal growth inhibition per disk; assay type: functional
Globisporangium ultimum = assay: Antifungal activity against Globisporangium ultimum assessed as fungal growth inhibition per disk; assay type: functional
Cladosporium cucumerinum [9] = assay: Antifungal activity against Cladosporium cucumerinum assessed as zone of inhibition at 60 ug per disc; assay type: functional; conditions: read-out: DIZ
Klebsiella pneumoniae = assay: Antibacterial activity against Klebsiella pneumoniae; assay type: functional
Acinetobacter baumannii = assay: Antibacterial activity against Acinetobacter baumannii; assay type: functional
Staphylococcus aureus [10] = assay: Antibacterial activity against methicillin-resistant Staphylococcus aureus; assay type: functional
Shigella flexneri = assay: Antibacterial activity against Shigella flexneri; assay type: functional
Staphylococcus aureus [11] = assay: Antibacterial activity against Staphylococcus aureus; assay type: functional
Pseudomonas aeruginosa = assay: Antibacterial activity against Pseudomonas aeruginosa; assay type: functional
Streptococcus oralis = assay: Antibacterial activity against Streptococcus oralis; assay type: functional
Bacillus subtilis = assay: Antibacterial activity against Bacillus subtilis; assay type: functional
Streptococcus pneumoniae = assay: Antibacterial activity against Streptococcus pneumoniae; assay type: functional
Salmonella typhimurium = assay: Antibacterial activity against Salmonella enterica subsp. enterica serovar Typhimurium; assay type: functional

Sequence of Integrin alpha-M/beta-2 (P05107 23-769 limits assumed, other chains not shown): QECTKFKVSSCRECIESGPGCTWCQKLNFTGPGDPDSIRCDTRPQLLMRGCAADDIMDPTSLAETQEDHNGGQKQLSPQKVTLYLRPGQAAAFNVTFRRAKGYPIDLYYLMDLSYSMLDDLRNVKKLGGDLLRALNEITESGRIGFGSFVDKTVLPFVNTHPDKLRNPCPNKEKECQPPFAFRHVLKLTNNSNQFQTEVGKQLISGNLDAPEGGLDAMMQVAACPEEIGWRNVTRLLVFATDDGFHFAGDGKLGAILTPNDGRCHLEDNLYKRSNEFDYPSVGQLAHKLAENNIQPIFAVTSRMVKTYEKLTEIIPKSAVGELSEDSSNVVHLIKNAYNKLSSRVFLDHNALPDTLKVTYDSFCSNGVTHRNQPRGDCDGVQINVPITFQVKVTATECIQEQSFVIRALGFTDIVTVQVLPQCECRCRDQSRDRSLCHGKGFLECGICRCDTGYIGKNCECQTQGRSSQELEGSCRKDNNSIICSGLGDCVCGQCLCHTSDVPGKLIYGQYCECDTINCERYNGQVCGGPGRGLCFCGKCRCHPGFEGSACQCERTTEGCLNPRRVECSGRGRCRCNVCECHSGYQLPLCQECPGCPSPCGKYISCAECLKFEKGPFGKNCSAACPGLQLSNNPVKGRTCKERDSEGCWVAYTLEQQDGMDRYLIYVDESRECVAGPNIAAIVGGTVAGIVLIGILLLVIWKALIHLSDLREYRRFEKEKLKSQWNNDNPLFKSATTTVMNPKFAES

C[C@]12C[C@H](O)[C@@H](NC(=O)CN)C[C@H]1CC[C@@H]1[C@@H]2CC[C@]2(C)C(=O)CC[C@@H]12
Activity (Rattus norvegicus [1]): 172 | Activity (Rattus norvegicus [2]): 11%

C[C@H](CCC(=O)N[C@@H](CCCCNC(=O)CC[C@H](C)[C@H]1CC[C@H]2[C@@H]3[C@H](O)C[C@@H]4C[C@H](O)CC[C@]4(C)[C@H]3C[C@H](O)[C@]12C)C(=O)O)[C@H]1CC[C@H]2[C@@H]3[C@H](O)C[C@@H]4C[C@H](O)CC[C@]4(C)[C@H]3C[C@H](O)[C@]12C
IC50 (MCF7): > 50 µM

CCCP(=O)(OCC)C(Cc1cn(CCC[C@@H](C)[C@H]2CC[C@H]3[C@@H]4CC[C@@H]5C[C@H](O)CC[C@]5(C)[C@H]4CC[C@]23C)nn1)C(=O)O (some centres not stated)
IC50 [3]: 7 µM

C[C@H](CCC(=O)N[C@@H](CCCCNC(=O)CC[C@H](C)[C@H]1CC[C@H]2[C@@H]3CC[C@@H]4C[C@H](O)CC[C@]4(C)[C@H]3C[C@H](O)[C@]12C)C(=O)O)[C@H]1CC[C@H]2[C@@H]3CC[C@@H]4C[C@H](O)CC[C@]4(C)[C@H]3C[C@H](O)[C@]12C
IC50 (MCF7): > 50 µM

CO[C@H]1CC[C@@]2(C)[C@@H](CC[C@H]3[C@@H]2CC[C@@]2(C)[C@H]3C[C@H](C(=O)N[C@@H](CCCNC(=N)N)C(=O)NCC(=O)N[C@@H](CC(=O)O)C(=O)NCc3ccccc3)O[C@]23CCCO3)C1
IC50 (Integrin alpha-M/beta-2): 10.9 µM

Cc1ccc(NC(=O)[C@H](C)NC(=O)CC[C@@H](C)[C@H]2CC[C@H]3[C@@H]4[C@H](O)C[C@@H]5C[C@H](O)CC[C@]5(C)[C@H]4C[C@H](O)[C@]23C)cc1
GI50 [4]: 1.62 µM | GI50 (MDA-MB-231): 4.52 µM

COC(=O)[C@H](CCCCNC(=O)CC[C@H](C)[C@H]1CC[C@H]2[C@@H]3CC[C@@H]4C[C@H](O)CC[C@]4(C)[C@H]3C[C@H](O)[C@]12C)NC(=O)CC[C@@H](C)[C@H]1CC[C@H]2[C@@H]3CC[C@@H]4C[C@H](O)CC[C@]4(C)[C@H]3C[C@H](O)[C@]12C
IC50 (MCF7): < 10 µM

COC(=O)[C@H](CCCCNC(=O)CC[C@H](C)[C@H]1CC[C@H]2[C@@H]3[C@H](O)C[C@@H]4C[C@H](O)CC[C@]4(C)[C@H]3C[C@H](O)[C@]12C)NC(=O)CC[C@@H](C)[C@H]1CC[C@H]2[C@@H]3[C@H](O)C[C@@H]4C[C@H](O)CC[C@]4(C)[C@H]3C[C@H](O)[C@]12C
IC50 (MCF7): < 10 µM

CCCCCCCCNCCC[C@@H](C)[C@H]1CC[C@H]2[C@@H]3[C@H](OCCCNC(=N)N)C[C@@H]4C[C@H](OCCCNC(=N)N)CC[C@]4(C)[C@H]3C[C@H](OCCCNC(=N)N)[C@]12C
MIC (Escherichia coli): 1 µg/mL

C[C@H](CCC(=O)NCC(=O)O)[C@H]1CC[C@H]2[C@@H]3C(=O)C[C@@H]4C[C@H](O)CC[C@]4(C)[C@H]3CC[C@]12C
Ki [5]: 4.21 µM | Ki [6]: 20.4 µM

CC[C@H](C)[C@H](NC(=O)CC[C@@H](C)[C@H]1CC[C@H]2[C@@H]3[C@H](O)C[C@@H]4C[C@H](O)CC[C@]4(C)[C@H]3C[C@H](O)[C@]12C)C(=O)Nc1ccccc1
GI50 (MDA-MB-231): 1.35 µM

Cc1c(NC(=O)[C@H](C)NC(=O)CC[C@@H](C)[C@H]2CC[C@H]3[C@@H]4[C@H](O)C[C@@H]5C[C@H](O)CC[C@]5(C)[C@H]4C[C@H](O)[C@]23C)c(=O)n(-c2ccccc2)n1C
GI50 [4]: 2.49 µM

CC(C)[C@H](NC(=O)CC[C@@H](C)[C@H]1CC[C@H]2[C@@H]3[C@H](O)C[C@@H]4C[C@H](O)CC[C@]4(C)[C@H]3C[C@H](O)[C@]12C)C(=O)Nc1ccncc1
GI50 [4]: 2.46 µM

C=C(C(=O)N[C@H](C(=O)O)c1ccc(OC)cc1)C(C)CC[C@@H](C)[C@H]1CCC2=C3CC[C@H]4[C@H](C)[C@@H](OS(=O)(=O)O)CC[C@]4(C)[C@H]3CC[C@@]21C (some centres not stated)
zone of inhibition at 30 µg/disc (Cladosporium cucumerinum [7]): 10.1 mm | MIC (Staphylococcus aureus [8]): 100 µg | MIC (Candida albicans): 75 µg | MIC (Globisporangium ultimum): 25 µg | zone of inhibition at 60 µg/disc (Cladosporium cucumerinum [9]): 8 mm

POLYMYXIN B
MIC (Escherichia coli): 1.8 µg/mL

CCCCCCCCNCCC[C@@H](C)[C@H]1CC[C@H]2[C@@H]3[C@H](OCCCN)C[C@@H]4C[C@H](OCCCN)CC[C@]4(C)[C@H]3C[C@H](OCCCN)[C@]12C
MIC (Escherichia coli): 1.5 µg/mL

CO[C@H]1CC[C@@]2(C)[C@@H](CC[C@H]3[C@@H]2CC[C@@]2(C)[C@H]3C[C@H](C(=O)N[C@@H](CCCNC(=N)N)C(=O)NCC(=O)N[C@@H](CC(=O)O)C(N)=O)O[C@]23CCCO3)C1
IC50 (Integrin alpha-M/beta-2): 6.5 µM

C[C@H](CCC(=O)NCC(=O)O)[C@H]1CC[C@H]2[C@@H]3[C@@H](OC(=O)c4cccnc4)C[C@@H]4C[C@H](O)CC[C@]4(C)[C@H]3CC[C@]12C
Ki [5]: 11.8 µM | Ki [6]: 15.2 µM

COC(=O)[C@H](CCCCNC(=O)CC[C@H](C)[C@H]1CC[C@H]2[C@@H]3CC[C@@H]4C[C@H](OC(C)=O)CC[C@]4(C)[C@H]3C[C@H](OC(C)=O)[C@]12C)NC(=O)CC[C@@H](C)[C@H]1CC[C@H]2[C@@H]3CC[C@@H]4C[C@H](OC(C)=O)CC[C@]4(C)[C@H]3C[C@H](OC(C)=O)[C@]12C
IC50 (MCF7): > 100 µM

C[C@H](CCC(=O)NCC(=O)O)[C@H]1CC[C@H]2[C@@H]3[C@@H](OC(=O)c4ccc(F)cc4)C[C@@H]4C[C@H](O)CC[C@]4(C)[C@H]3CC[C@]12C
Ki [5]: 2.55 µM | Ki [6]: 8.39 µM

CC(C)[C@H](N)C(=O)NCC(=O)OO[C@H]1C[C@H]2[C@@H]([C@H](OC(=O)CNC(=O)[C@@H](N)C(C)C)C[C@@H]3C[C@H](OC(=O)CNC(=O)[C@@H](N)C(C)C)CC[C@@]32C)[C@@H]2CC[C@H]([C@H](C)CCC(=O)OCc3ccccc3)[C@@]12C
MIC (Klebsiella pneumoniae): 16 µM (≈ 15.7 µg/mL) | MIC (Escherichia coli): 8 µM | MIC (Acinetobacter baumannii): 16 µM (≈ 15.7 µg/mL)

COC(=O)CCCN[C@@H]1CC[C@@]2(C)[C@H](C1)C[C@@H](NCCCC(=O)OC)[C@@H]1[C@@H]2CC[C@]2(C)[C@@H]([C@H](C)CCCC(C)C)CC[C@@H]12
MIC (Staphylococcus aureus [10]): 2 µg/mL (≈ 3.32 µM)

C[C@H](CCC(=O)NCC(=O)O)[C@H]1CC[C@H]2[C@@H]3[C@H](O)C[C@@H]4C[C@H](OC(=O)c5cccnc5)CC[C@]4(C)[C@H]3CC[C@]12C
Ki [5]: 5.38 µM | Ki [6]: 6.45 µM

COc1cccc2c1C(=O)c1c(O)c3c(c(O)c1C2=O)C[C@@](O)(C(=O)CO)C[C@@H]3O[C@H]1C[C@H](N)[C@H](O)[C@H](C)O1 [DOXORUBICIN]
GI50 [4]: 2.6 µM | GI50 (MDA-MB-231): 1 µM

C[C@H](CCC(=O)NCC(=O)O)[C@H]1CC[C@H]2[C@@H]3[C@H](OC(=O)c4cccnc4)C[C@@H]4C[C@H](O)CC[C@]4(C)[C@H]3CC[C@]12C
Ki [5]: 9.29 µM | Ki [6]: 15.6 µM

CCCCCCOC(=O)CC[C@@H](C)[C@H]1CC[C@H]2[C@@H]3[C@H](OC(=O)CN)C[C@@H]4C[C@H](OC(=O)CN)CC[C@]4(C)[C@H]3C[C@H](OC(=O)CN)[C@]12C
MIC99 (Shigella flexneri): 4 µM (≈ 2.66 µg/mL) | MIC (Staphylococcus aureus [11]): 4 µM (≈ 2.66 µg/mL) | MIC99 (Pseudomonas aeruginosa): 4 µM (≈ 2.66 µg/mL) | MIC (Streptococcus oralis): 4 µM (≈ 2.66 µg/mL) | MIC99 (Klebsiella pneumoniae): 4 µM (≈ 2.66 µg/mL) | MIC99 (Escherichia coli): 4 µM (≈ 2.66 µg/mL) | MIC99 (Acinetobacter baumannii): 4 µM (≈ 2.66 µg/mL) | MIC (Bacillus subtilis): 4 µM (≈ 2.66 µg/mL) | MIC (Streptococcus pneumoniae): 4 µM (≈ 2.66 µg/mL) | MIC99 (Salmonella typhimurium): 4 µM (≈ 2.66 µg/mL)

CC[C@H](C)[C@H](NC(=O)CC[C@@H](C)[C@H]1CC[C@H]2[C@@H]3[C@H](O)C[C@@H]4C[C@H](O)CC[C@]4(C)[C@H]3C[C@H](O)[C@]12C)C(=O)Nc1nc2ccccc2s1
GI50 (MDA-MB-231): 1.41 µM

C[C@H](CCC(=O)O)[C@H]1CC[C@H]2[C@@H]3CC[C@@H]4C[C@H](OC(=O)[C@H](N)CC(=O)O)CC[C@]4(C)[C@H]3CC[C@]12C
IC50 [3]: 6 µM

C[C@H](CCCn1cc(CCCC(=O)O)nn1)[C@H]1CC[C@H]2[C@@H]3CC[C@@H]4C[C@H](O)CC[C@]4(C)[C@H]3CC[C@]12C
IC50 [3]: 5 µM
